Blank lines part the entries; values can stand above or below the compound they belong to. Active and inactive are the calls of the source. The calls are words filed in the database; no cut-off is given here.
Tests used:
[1] = biological target: T1, von Hippel-Lindau disease tumor suppressor/Tyrosine-protein phosphatase non-receptor type 2 (Homo sapiens, UniProt P17706+P40337); experiment: PROTAC activity at VHL/PTPN2 in human Jurkat cells assessed as induction of PTPN2 degradation at 1 uM by Western blot analysis; assay type: cell-based; conditions: time 1-48 hrs, TDE = time-dependent effect
Target sequence in this assay (P40337 whole entry, looked up, one chain of several): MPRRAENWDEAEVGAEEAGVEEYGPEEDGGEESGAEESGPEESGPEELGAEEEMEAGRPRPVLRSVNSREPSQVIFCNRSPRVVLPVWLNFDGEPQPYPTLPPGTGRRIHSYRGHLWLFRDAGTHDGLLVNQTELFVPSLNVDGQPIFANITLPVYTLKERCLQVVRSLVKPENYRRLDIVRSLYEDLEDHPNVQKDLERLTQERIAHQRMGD

B16-F10 [2] = experiment: Inhibition of cell growth in IFN-gamma-treated mouse B16-F10 cells assessed as reduction in cell confluency measured upto 96 hrs; assay type: functional, cell-based; conditions: dose 1.25-5 µM
B16-F10 [3] = experiment: Effect on SHP-2 level in mouse B16-F10 cells at 0.013 to 10 uM by Western blot analysis; assay type: functional, cell-based; conditions: dose 0.013-10 µM
Splenocyte [4] = experiment: Effect on SHP-1 level in mouse splenocytes at 0.013 to 10 uM by Western blot analysis; assay type: functional, cell-based; conditions: dose 0.013-10 µM
Jurkat [5] = experiment: Effect on PTPN6 level in human Jurkat cells at 1 uM incubated for 24 hrs by label free proteomic analysis; assay type: functional, cell-based
[6] = biological target: T1, von Hippel-Lindau disease tumor suppressor/Tyrosine-protein phosphatase non-receptor type 2; experiment: PROTAC activity at VHL/PTPN2 in human Jurkat cells assessed as increase in STAT1 phosphorylation incubated for 23 hrs followed by IFN-gamma stimulation for 1 hr by Western blot analysis; assay type: cell-based; conditions: dose <= 10.0 µM, time 24.0 hrs
Target sequence in this assay (P40337 whole entry, looked up, one chain of several): as above

Jurkat [7] = experiment: Effect on PTPN7 level in human Jurkat cells at 1 uM incubated for 24 hrs by label free proteomic analysis; assay type: functional, cell-based
B16-F10 [8] = experiment: Effect on PTP1B level in mouse B16-F10 cells at 0.013 to 10 uM by Western blot analysis; assay type: functional, cell-based; conditions: dose 0.013-10 µM
[9] = biological target: T1, von Hippel-Lindau disease tumor suppressor/Tyrosine-protein phosphatase non-receptor type 2; experiment: PROTAC activity at VHL/PTPN2 in IFN-gamma-stimulated human Jurkat cells assessed as increase in STAT1 phosphorylation at 0.1 to 10 uM incubated for 24 hrs by Western blot analysis; assay type: cell-based; conditions: dose 0.1-10 µM
Target sequence in this assay (P40337 whole entry, looked up, one chain of several): as above

Splenocyte [10] = experiment: Induction of cell proliferation in anti-CD3/CD28-stimulated mouse splenocytes incubated for 3 days by CFSE dye based flow cytometry; assay type: functional; conditions: dose 1.25-5 µM, time 3.0 day
Splenocyte [11] = experiment: Effect on PTP1B level in mouse splenocytes at 0.013 to 10 uM by Western blot analysis; assay type: functional, cell-based; conditions: dose 0.013-10 µM
[12] = biological target: T1, von Hippel-Lindau disease tumor suppressor/Tyrosine-protein phosphatase non-receptor type 2; experiment: PROTAC activity at VHL/PTPN2 in human HepG2 cells assessed as induction of PTPN2 degradation at 0.013 to 10 uM by Western blot analysis; assay type: cell-based; conditions: dose 0.013-10 µM
Target sequence in this assay (P40337 whole entry, looked up, one chain of several): as above

Jurkat [13] = experiment: Effect on PTP1B level in human Jurkat cells at 0.1 to 10 uM incubated for 24 hrs by Western blot analysis; assay type: functional, cell-based; conditions: dose 0.1-10 µM
[14] = biological target: T1, von Hippel-Lindau disease tumor suppressor/Tyrosine-protein phosphatase non-receptor type 2; experiment: PROTAC activity at VHL/PTPN2 in human Jurkat cells assessed as induction of PTPN2 degradation at 10 uM by Western blot analysis relative to control; assay type: cell-based
Target sequence in this assay (P40337 whole entry, looked up, one chain of several): as above

Splenocyte [15] = experiment: Effect on SHP-2 level in mouse splenocytes cells at 0.013 to 10 uM by Western blot analysis; assay type: functional, cell-based; conditions: dose 0.013-10 µM
Jurkat [16] = experiment: Effect on PTPN9 level in human Jurkat cells at 1 uM incubated for 24 hrs by label free proteomic analysis; assay type: functional, cell-based
HepG2 = experiment: Effect on PTP1B level in human HepG2 cells at 0.013 to 10 uM by Western blot analysis; assay type: functional, cell-based; conditions: dose 0.013-10 µM
[17] = biological target: T1, von Hippel-Lindau disease tumor suppressor/Tyrosine-protein phosphatase non-receptor type 2; experiment: PROTAC activity at VHL/PTPN2 in human Jurkat cells assessed as induction of PTPN2 degradation at 100 nM by Western blot analysis relative to control; assay type: cell-based
Target sequence in this assay (P40337 whole entry, looked up, one chain of several): as above

Jurkat [18] = experiment: Effect on STAT1 level in human Jurkat cells at 0.1 to 10 uM incubated for 24 hrs by Western blot analysis; assay type: functional, cell-based; conditions: dose 0.1-10 µM
Jurkat [19] = experiment: Effect on PTPN1 level in human Jurkat cells at 1 uM incubated for 24 hrs by label free proteomic analysis; assay type: functional, cell-based
[20] = biological target: T2, von Hippel-Lindau disease tumor suppressor/Receptor-type tyrosine-protein phosphatase N2 (Mus musculus) (UniProt P40338+P80560); experiment: PROTAC activity at VHL/PTPN2 in mouse B16-F10 cells assessed as induction of PTPN2 degradation at 0.013 to 10 uM by Western blot analysis; assay type: cell-based; conditions: dose 0.013-10 µM
T2 sequence (P40338 whole entry, looked up): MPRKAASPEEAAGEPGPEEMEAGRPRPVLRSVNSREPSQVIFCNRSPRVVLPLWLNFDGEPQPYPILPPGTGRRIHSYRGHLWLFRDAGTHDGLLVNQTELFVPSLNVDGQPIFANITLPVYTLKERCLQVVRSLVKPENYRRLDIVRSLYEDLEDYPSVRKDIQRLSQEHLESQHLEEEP
T2 sequence (P80560 whole entry, looked up): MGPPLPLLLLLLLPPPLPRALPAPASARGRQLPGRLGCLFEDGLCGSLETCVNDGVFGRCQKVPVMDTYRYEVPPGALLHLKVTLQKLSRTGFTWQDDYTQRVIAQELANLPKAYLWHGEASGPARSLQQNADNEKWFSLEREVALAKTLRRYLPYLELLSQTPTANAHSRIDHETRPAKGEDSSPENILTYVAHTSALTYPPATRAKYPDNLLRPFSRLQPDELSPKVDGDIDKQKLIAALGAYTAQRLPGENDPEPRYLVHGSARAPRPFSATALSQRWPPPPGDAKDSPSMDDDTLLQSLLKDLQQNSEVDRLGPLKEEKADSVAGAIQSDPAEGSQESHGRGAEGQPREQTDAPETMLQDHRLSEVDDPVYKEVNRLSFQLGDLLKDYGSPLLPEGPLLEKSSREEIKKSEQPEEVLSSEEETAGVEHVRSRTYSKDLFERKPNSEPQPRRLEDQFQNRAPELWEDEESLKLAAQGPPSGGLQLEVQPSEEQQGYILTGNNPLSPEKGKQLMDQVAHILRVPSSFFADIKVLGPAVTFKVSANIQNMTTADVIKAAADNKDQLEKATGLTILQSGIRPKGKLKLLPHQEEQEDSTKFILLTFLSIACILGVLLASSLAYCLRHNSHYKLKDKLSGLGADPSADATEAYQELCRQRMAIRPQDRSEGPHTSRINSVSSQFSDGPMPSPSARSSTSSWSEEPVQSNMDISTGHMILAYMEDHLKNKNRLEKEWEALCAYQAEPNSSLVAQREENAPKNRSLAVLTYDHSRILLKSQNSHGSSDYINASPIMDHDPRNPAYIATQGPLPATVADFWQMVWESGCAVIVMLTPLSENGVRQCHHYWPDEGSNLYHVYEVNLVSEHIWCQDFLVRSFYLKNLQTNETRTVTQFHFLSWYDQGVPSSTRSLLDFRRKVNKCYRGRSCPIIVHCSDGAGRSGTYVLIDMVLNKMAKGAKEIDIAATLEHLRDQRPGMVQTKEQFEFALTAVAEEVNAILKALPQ

Jurkat [21] = experiment: Effect on PTPN18 level in human Jurkat cells at 1 uM incubated for 24 hrs by label free proteomic analysis; assay type: functional, cell-based
Jurkat [22] = experiment: Effect on PTPN23 level in human Jurkat cells at 1 uM incubated for 24 hrs by label free proteomic analysis; assay type: functional, cell-based
B16-F10 [23] = experiment: Effect on SHP-1 level in mouse B16-F10 cells at 0.013 to 10 uM by Western blot analysis; assay type: functional, cell-based; conditions: dose 0.013-10 µM
[24] = biological target: T1, von Hippel-Lindau disease tumor suppressor/Tyrosine-protein phosphatase non-receptor type 2; experiment: PROTAC activity at VHL/PTPN2 in human Jurkat cells assessed as induction of PTPN2 degradation at 1 uM incubated for 24 hrs by label free proteomic analysis; assay type: cell-based
Jurkat [25] = experiment: Effect on PTP1B level in human Jurkat cells at 1 uM incubated for 1 to 48 hrs by Western blot analysis; assay type: functional, cell-based; conditions: time 1-48 hrs
Jurkat [26] = experiment: Effect on PTPN11 level in human Jurkat cells at 1 uM incubated for 24 hrs by label free proteomic analysis; assay type: functional, cell-based
[27] = biological target: von Hippel-Lindau disease tumor suppressor/Tyrosine-protein phosphatase non-receptor type 1 (Homo sapiens, UniProt P18031+P40337); experiment: PROTAC activity at VHL/PTP1B in human Jurkat cells assessed as induction of PTP1B degradation by Western blot analysis; assay type: cell-based
von Hippel-Lindau disease tumor suppressor/Tyrosine-protein phosphatase non-receptor type 1, sequence (P40337 whole entry, one chain of several): as the sequence (P40337 whole entry, looked up, one chain of several) above

[28] = biological target: T1, von Hippel-Lindau disease tumor suppressor/Tyrosine-protein phosphatase non-receptor type 2; experiment: PROTAC activity at VHL/PTPN2 in IFN-gamma-stimulated human Jurkat cells assessed as induction of PTPN2 degradation at 0.1 to 10 uM incubated for 24 hrs by Western blot analysis; assay type: cell-based; conditions: dose 0.1-10 µM
[29] = biological target: T1, von Hippel-Lindau disease tumor suppressor/Tyrosine-protein phosphatase non-receptor type 2; experiment: PROTAC activity at VHL/PTPN2 in human Jurkat cells assessed as induction of PTPN2 degradation at 1 uM by Western blot analysis relative to control; assay type: cell-based
[30] = biological target: T2, von Hippel-Lindau disease tumor suppressor/Receptor-type tyrosine-protein phosphatase N2 (Mus musculus); experiment: PROTAC activity at VHL/PTPN2 in mouse splenocytes assessed as induction of PTPN2 degradation at 0.013 to 10 uM by Western blot analysis; assay type: cell-based; conditions: Splenocyte, dose 0.013-10 µM
[31] = biological target: T1, von Hippel-Lindau disease tumor suppressor/Tyrosine-protein phosphatase non-receptor type 2; experiment: PROTAC activity at VHL/PTPN2 in human Jurkat cells assessed as induction of PTPN2 degradation by Western blot analysis; assay type: cell-based
Target sequence in this assay (P40337 whole entry, one chain of several): as the sequence (P40337 whole entry, looked up, one chain of several) above

[32] = biological target: T3, Tyrosine-protein phosphatase non-receptor type 2 (Homo sapiens, UniProt P17706); experiment: Inhibition of PTPN2 (unknown origin) using DiFMUP as substrate by […] based assay
T3 sequence (P17706 whole entry): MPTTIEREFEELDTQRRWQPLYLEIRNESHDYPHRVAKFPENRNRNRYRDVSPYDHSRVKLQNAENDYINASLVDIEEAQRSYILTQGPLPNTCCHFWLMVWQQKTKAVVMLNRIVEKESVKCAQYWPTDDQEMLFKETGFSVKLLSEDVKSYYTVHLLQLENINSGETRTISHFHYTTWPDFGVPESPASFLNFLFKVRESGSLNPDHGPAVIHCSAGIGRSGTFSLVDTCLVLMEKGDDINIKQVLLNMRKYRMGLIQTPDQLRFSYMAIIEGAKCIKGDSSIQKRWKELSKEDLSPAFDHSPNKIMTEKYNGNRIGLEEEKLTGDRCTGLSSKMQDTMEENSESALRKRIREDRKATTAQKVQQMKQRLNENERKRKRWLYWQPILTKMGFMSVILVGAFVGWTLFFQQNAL

[33] = biological target: T4, Tyrosine-protein phosphatase non-receptor type 1 (Homo sapiens, UniProt P18031); experiment: Inhibition of PTP1B (unknown origin) using DiFMUP as substrate by […] based assay
T4 sequence (P18031 whole entry): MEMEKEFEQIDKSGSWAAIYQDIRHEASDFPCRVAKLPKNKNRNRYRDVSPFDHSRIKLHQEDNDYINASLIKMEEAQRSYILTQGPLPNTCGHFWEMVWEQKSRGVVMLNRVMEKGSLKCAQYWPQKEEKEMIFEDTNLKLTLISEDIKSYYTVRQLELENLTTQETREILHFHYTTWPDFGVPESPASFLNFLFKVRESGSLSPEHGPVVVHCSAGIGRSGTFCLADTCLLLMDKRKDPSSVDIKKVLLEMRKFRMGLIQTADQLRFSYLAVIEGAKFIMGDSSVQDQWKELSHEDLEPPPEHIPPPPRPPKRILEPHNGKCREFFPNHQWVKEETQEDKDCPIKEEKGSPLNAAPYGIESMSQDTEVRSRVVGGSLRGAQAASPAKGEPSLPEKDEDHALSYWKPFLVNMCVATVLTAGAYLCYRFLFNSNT

[34] = biological target: T4, Tyrosine-protein phosphatase non-receptor type 1; experiment: Inhibition of 6xHis-tagged PTP1B (unknown origin) Escherichia coli BL21 (DE3)-RIL using OMFP as substrate incubated for 30 mins by fluorescence based assay

- Activity [1]: Tde
- Activity [6]: Dose-Dependent Effect
- Activity ([9]; DEGRADER): Active
- Activity [9]: inactive
- Activity [12]: Active
- Activity [14]: 99%
- Activity [17]: 43%
- Activity [20]: Active
- Activity [24]: Active
- EC50 [27]: 13100 nM
- Activity ([28]; DEGRADER): Active
- Activity [28]: inactive
- Activity [29]: 81%
- Activity [30]: Active
- EC50 [31]: 217 nM
SMILES: Cc1ncsc1-c1ccc([C@H](C)NC(=O)[C@@H]2C[C@@H](O)CN2C(=O)[C@@H](NC(=O)CCCCCNC(=O)Cn2cc(-c3ccc4cc(O)c(N5CC(=O)NS5(=O)=O)c(F)c4c3)cn2)C(C)(C)C)cc1
- inhibition (B16-F10 [2]): Dose-Dependent Effect
- Activity (B16-F10 [3]): inactive
- Activity (Splenocyte [4]): inactive
- Activity (Jurkat [5]): inactive
- Activity (Jurkat [7]): inactive
- Activity (B16-F10 [8]): inactive
- Activity (Splenocyte [10]): Dose-Dependent Effect
- Activity (Splenocyte [11]): inactive
- Activity (Jurkat [13]): inactive
- Activity (Splenocyte [15]): inactive
- Activity (Jurkat [16]): inactive
- Activity (HepG2): inactive
- Activity (Jurkat [18]): inactive
- Activity (Jurkat [19]): inactive
- Activity (Jurkat [21]): inactive
- Activity (Jurkat [22]): inactive
- Activity (B16-F10 [23]): inactive
- Activity (Jurkat [25]): inactive
- Activity (Jurkat [26]): inactive

- IC50 [32]: 11.4 nM
- IC50 [33]: 8.39 nM
SMILES: O=C1CN(c2c(O)cc3ccc(Br)cc3c2F)S(=O)(=O)N1

- IC50 [34]: 950 nM
SMILES: CC(C)(C)C(=O)Nc1ccc2c(c1)C(=O)C(=O)c1ccccc1-2

— ChEMBL document CHEMBL5390283, “Discovery of PVD-06 as a Subtype-Selective and Efficient PTPN2 Degrader” (J Med Chem, 2023)
